The subject of one assay is Staphylococcus aureus. The experiment in a line: Antibacterial activity against Staphylococcus aureus assessed as inhibition of growth at 100 uM after 24 hrs. The assay is classed as functional, organism-based.
The subject of the next assay is A549. The experiment in a line: Cytotoxicity against human A549 cells assessed as reduction in cell viability. Type of assay: functional, cell-based.
Another assay has as its system HL-60. The experiment in a line: Cytotoxicity against human HL-60 cells assessed as reduction in cell viability. Type of assay: functional, cell-based.
Another assay has as its system MCF7. The experiment in a line: Cytotoxicity against human MCF7 cells assessed as reduction in cell viability. The assay is classed as functional, cell-based.
For another assay, the system named is SW480. The experiment in a line: Cytotoxicity against human SW480 cells assessed as reduction in cell viability. Type of assay: functional, cell-based.
In a further assay the test system is SMMC-7721. The experiment in a line: Cytotoxicity against human SMMC-7721 cells assessed as reduction in cell viability. The assay is classed as functional, cell-based.
In the next assay the test system is Candida albicans. The experiment in a line: Antifungal activity against fluconazole resistant Candida albicans kzs01 assessed as inhibition of growth at 100 uM after 24 hrs. The assay is classed as functional, organism-based.
A short description of assay [1]: Cytotoxicity against human multidrug-resistant A549/Taxol cells assessed as reduction in cell viability. The assay is classed as functional, cell-based.
Another assay relates to RAW264.7. The experiment in a line: Inhibition of LPS-induced NO production in mouse RAW264.7 cells incubated for 18 hrs by Griess reagent based assay. Type of assay: functional, cell-based. Particulars: RAW264.7, 18 h.

Activity calls are given as the source filed them. The calls are words filed in the database; no cut-off is given here.

What is called IC50 is the point on the concentration scale where inhibition reaches its midpoint.

For `COC(=O)CCCCCC/C=C(/C=O)C[C@H]1C(=O)[C@@]23[C@H]4OC5O[C@@]2(O)[C@@H](O)[C@@H]2C(C)(C)CCC[C@]52[C@@H]3[C@@H](OC(C)=O)C[C@@H]14`, the inhibition result in the assay on Staphylococcus aureus and in the assay with Candida albicans was “inactive” in each case. In addition, the IC50 (in the assay on A549; in the assay on HL-60; in the assay on MCF7; in the assay with SW480; in the assay on SMMC-7721; in assay [1]) was above 10 µM each time.

For the compound `COC[C@@]1(C[C@H]2C(=O)[C@@]34[C@H]5OC6O[C@@]3(O)[C@@H](O)[C@@H]3C(C)(C)CCC[C@]63[C@@H]4CC[C@@H]25)C(=O)[C@@]23[C@H]4OC5O[C@@]2(O)[C@@H](O)[C@@H]2C(C)(C)CCC[C@]52[C@@H]3[C@@H](OC(C)=O)C[C@H]41`, the inhibition entry with Staphylococcus aureus and in the assay on Candida albicans was “inactive” in each case. Also, the half-inhibitory concentration (IC50) (with A549; with HL-60; with MCF7; in the assay on SW480; in the assay with SMMC-7721; in [1]) was above 10 µM each time. The compound also showed a concentration for half-maximal inhibition (IC50) with RAW264.7 of 11.1 µM.

`CC(=O)O[C@H]1C[C@@H]2[C@@H]3OC4O[C@@]5(O)[C@@H](O)[C@@H]6C(C)(C)CCC[C@]46[C@H]1[C@]35C(=O)[C@]21CO1`: the inhibition result in the assay on Staphylococcus aureus and in the assay on Candida albicans was “inactive” throughout. In addition, the IC50 (with A549; in the assay on HL-60; with MCF7; with SW480; in the assay on SMMC-7721; in assay [1]) was above 10 µM each time.

Take `CC(=O)O[C@H]1C[C@@H]2[C@@H]3OC4O[C@@]5(O)[C@@H](O)[C@@H]6C(C)(C)CCC[C@]46[C@H]1[C@]35C(=O)[C@]21CCC2=C(O1)[C@@]13[C@H]4OC5O[C@@]1(O)[C@@H](O)[C@@H]1C(C)(C)CCC[C@]51[C@@H]3CC[C@@H]24`: the inhibition entry with Staphylococcus aureus and with Candida albicans was “inactive” throughout. The half-maximal inhibitory concentration (IC50) (with A549; with HL-60; with MCF7; with SW480; in the assay on SMMC-7721; in [1]) was above 10 µM in each case.

On to `COC[C@@]1(C[C@H]2C(=O)[C@@]34[C@H]5OC6O[C@@]3(O)[C@@H](O)[C@@H]3C(C)(C)CCC[C@]63[C@@H]4[C@@H](OC(C)=O)C[C@@H]25)C(=O)[C@]23[C@H](O)[C@@]4(O)OC5O[C@H]2[C@H]1C[C@H](OC(C)=O)[C@H]3[C@@]51CCCC(C)(C)[C@@H]41` (stereo partly drawn), for which the inhibition result in the assay on Staphylococcus aureus and in the assay on Candida albicans was “inactive” in each case. The IC50 (in the assay on A549; in the assay on HL-60; in the assay on MCF7; in the assay with SW480; in the assay with SMMC-7721; in assay [1]) was above 10 µM throughout. The compound also gave an IC50 in the assay on RAW264.7 of 42.2 µM.

On to `COC[C@@H]1C(=O)[C@]23[C@H](O)[C@H]1CC[C@H]2C12CCCC(C)(C)[C@H]1C(=O)[C@]3(O)[C@@H]2O`, for which the inhibition entry with Staphylococcus aureus and in the assay with Candida albicans was “inactive” throughout. Also, the half-inhibitory concentration (IC50) (in the assay with A549; in the assay on HL-60; with MCF7; in the assay with SW480; in the assay on SMMC-7721; in assay [1]) was above 10 µM in each case.

For the compound `COC[C@H]1C(=O)[C@@]23[C@H]4OC5O[C@@]2(O)[C@@H](O)[C@@H]2C(C)(C)CCC[C@]52[C@@H]3[C@@H](OC(C)=O)C[C@@H]14`, the inhibition entry in the assay on Staphylococcus aureus and in the assay on Candida albicans was “inactive” in each case. The IC50 (with A549; in the assay on HL-60; with MCF7; with SW480; in the assay on SMMC-7721; in [1]) was above 10 µM throughout. For the same compound, the midpoint of inhibition with RAW264.7, the IC50, lay at 29.4 µM.

Regarding `COC[C@@H]1C(=O)[C@@]23[C@H]4OC5O[C@@]2(O)[C@@H](O)[C@@H]2C(C)(C)CCC[C@]52[C@@H]3[C@@H](OC(C)=O)C[C@@H]14`, the inhibition entry with Staphylococcus aureus and with Candida albicans was “inactive” each time. Further, the half-maximal inhibitory concentration (IC50) (with A549; with HL-60; in the assay with MCF7; in the assay with SW480; with SMMC-7721; in assay [1]) was above 10 µM in each case.

For `CNC(=N)NCCC[C@H](N)C(=O)O` [TILARGININE ACETATE], the IC50 with RAW264.7 was 47.2 µM.

(Values after ChEMBL document CHEMBL4673369, “ent-Kaurane-Based Diterpenoids, Dimers, and Meroditerpenoids from Isodon xerophilus” (J Nat Prod, 2020).)
